Test results from patent US20260234150A1, “COMPOUND FOR INHIBITING NLRP3, PREPARATION METHOD, AND USE” (DOVETREE MEDICINES UNUS, INC., priority 2023, published 2026).

Columns and labels:
[1] = target: T1, His6-Flag-TEV-NLRP3 (134-1036) (Homo sapiens, UniProt Q96P20); assay: NLRP3 fluorescence polarization (FP) binding assay, competition with probe NP3-301; conditions: competition with NP3-301 for binding to NLRP3 (134-1036), 30 nM protein
T1 construct: fused on or other part: N-terminal His6 tag, Flag tag and TEV cleavage site
T1 sequence (Q96P20 134-1036 limits assumed): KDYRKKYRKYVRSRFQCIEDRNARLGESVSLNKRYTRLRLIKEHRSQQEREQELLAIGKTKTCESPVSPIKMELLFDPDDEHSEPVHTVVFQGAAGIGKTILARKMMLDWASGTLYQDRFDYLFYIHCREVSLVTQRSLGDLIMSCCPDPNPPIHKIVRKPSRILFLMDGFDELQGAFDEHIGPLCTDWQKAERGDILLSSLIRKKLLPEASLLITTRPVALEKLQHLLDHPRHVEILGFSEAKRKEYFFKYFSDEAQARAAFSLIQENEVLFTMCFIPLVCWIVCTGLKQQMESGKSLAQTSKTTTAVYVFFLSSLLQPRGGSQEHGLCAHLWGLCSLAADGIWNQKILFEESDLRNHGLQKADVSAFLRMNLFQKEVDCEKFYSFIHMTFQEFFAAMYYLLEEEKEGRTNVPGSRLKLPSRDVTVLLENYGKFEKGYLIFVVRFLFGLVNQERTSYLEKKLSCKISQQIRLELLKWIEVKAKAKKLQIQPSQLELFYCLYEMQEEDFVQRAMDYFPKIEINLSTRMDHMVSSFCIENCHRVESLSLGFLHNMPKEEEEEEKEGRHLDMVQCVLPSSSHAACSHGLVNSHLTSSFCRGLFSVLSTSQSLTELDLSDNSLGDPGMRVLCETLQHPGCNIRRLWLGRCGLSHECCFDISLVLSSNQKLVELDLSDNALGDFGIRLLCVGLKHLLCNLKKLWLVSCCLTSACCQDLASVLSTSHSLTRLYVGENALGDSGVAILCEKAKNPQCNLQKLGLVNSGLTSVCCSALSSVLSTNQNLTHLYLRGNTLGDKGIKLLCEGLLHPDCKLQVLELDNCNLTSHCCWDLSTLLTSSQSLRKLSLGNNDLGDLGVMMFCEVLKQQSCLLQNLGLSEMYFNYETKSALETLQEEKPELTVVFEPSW
Method: This experiment uses fluorescence polarization technology to detect and evaluate the binding assay.
The fluorescent probe used in this assay is the compound NP3-301 in the Journal of Molecular Biology (2021) 433, 167309, which was synthesized with reference to this literature.
His6-Flag-TEV-NLRP3 (134-1036) protein (SEQ NO. 1) was purchased from Kaihuiruizhi Biotech (Shanghai) Co., Ltd. (ChemPartner), and was customed for expression.
Prepare 1× assay buffer: 50 mM Hepes, pH 7.4, 150 mM NaCl, 2.5 mM MgCl2, 0.005% Tween-20, 1 mM TCEP, 100 μM ATP.
First, 2.5 μL of 4× compound solution was added to a black shallow 384-well plate (Greiner, 784076), the shallow well plate was sealed, and centrifuged at 1000 rpm for 1 min; then 2× NLPR3 protein solution (final concentration of 30 nM) was added, the shallow well plate was sealed, centrifuged at 1000 rpm for 1 min, and incubated at room temperature for 60 min. Finally, 2.5 μL of 4× NP3-301 (final concentration of 0.5 nM) was added, the shallow well plate was sealed, centrifuged at 1000 rpm for 1 min, and incubated at room temperature for 30 min. Envision was used to read the fluorescence polarization values of λex=485+20 nm and kem=535+25 nm. GraphPad Prism 9.5.0 was used to analyze the data, and the IC50 value of the competition between the compound and NP3-301 for binding to His6-Flag-TEV-NLRP3 (134-1036) was fitted by four-parameter logistic. The compounds of the present disclosure have good NLRP3 binding activity, and the test results of some representative compounds are shown in Table 1.

[2] = test system: IL-1β secretion of THP-1 cells; assay: Effect of NLRP3 inhibitor on IL-1β secretion of THP-1 cells (AlphaLISA); format: cell-based; conditions: Homo sapiens; PMA, LPS and Nigericin stimulated THP-1 cells, IL-1β in supernatant; read-out: IC50 (nM), THP-1 cells to detect NLRP3 inhibitors
Method: This experiment used the PerkinElmer AlphaLISA_human_IL1β kit (AL220 C/F). The detection buffer was RPMI-1640+10FBS. AlphaLISA Immunoassay Buffer, AlphaLISA Anti-IL1β Acceptor beads, Streptavidin (SA)-coated Donor beads, and Biotinylated Antibody Anti-IL1β were all included in the kit.
The density of THP1 cells was adjusted to 4×10^5 cells/mL, PMA (final concentration 50 nM) was added, inoculated into 96-well flat-bottom plates at 200 μL/well, and stimulated overnight at 37° C., 5% CO2 (try to <16h). The next day, the supernatant was discarded, and the flat washed twice with DPBS ([…]/time). Then LPS solution (final concentration of 100 ng/ml) was added at 198 μL/well, incubated at 37° C., 5% CO2 for 3h. 1 μL of the corresponding concentration of compounds was added to each well according to the experimental MAP, incubated at 37° C., 5% CO2 for 1 h. 1 μL Nigericin (final concentration of […]) was added to each well, incubated overnight at 5% CO2 (>18h). On the third day, 5 μL of supernatant was taken, diluted 20 times, and the content of IL-Iβ in the supernatant was detected by Human Interleukin 1 beta (IL1β) Kit. Envision was used to read the AlphaLISA test value of Ex=680/[…]. GraphPad Prism 9.5.0 was used to analyze the data, and the IC50 value of the compound for IL-Iβ antagonism was fitted by four-parameter Logistic.

Row | IC50 [1] | IC50 [2] | SMILES
1 | ≤ 100 nM | 100 to 500 nM | CCC(=O)N1CCOC[C@H]1CNc1nc2nc(-c3c(C)cc(C(F)(F)F)cc3O)ccc2o1 [Compound 250]
2 | ≤ 100 nM | < 50 nM | CC(=O)N1CCOC[C@H]1CNc1nc2nc(-c3c(C)cc(Cl)cc3O)ccc2o1 [Compound 253]
3 | ≤ 100 nM | < 50 nM | Cc1cc(C(F)(F)F)cc(O)c1-c1ccc2oc(NC[C@@H]3COCCN3C(=O)C3CC3)nc2n1 [Compound 257]
4 | ≤ 100 nM | < 50 nM | Cc1cc(C(F)(F)F)cc(O)c1-c1ccc2oc(NC[C@@H]3COCCN3S(=O)(=O)C3CC3)nc2n1 [Compound 260]
5 | ≤ 100 nM | 50 to 100 nM | Cc1cc(C(F)(F)F)cc(O)c1-c1ccc2oc(N3CCOC[C@H]3C)nc2n1 [Compound 371]
6 | ≤ 100 nM | < 50 nM | Oc1cc(Cl)cc(O)c1-c1ccc2oc(N3CCOCC3)nc2n1 [Compound 376]
7 | ≤ 100 nM | 100 to 500 nM | Cc1cc(C(F)(F)F)cc(O)c1-c1ccc2oc(N3CC4CCC(C3)O4)nc2n1 [Compound 381]
8 | ≤ 100 nM | 50 to 100 nM | Cc1cc(Cl)cc(O)c1-c1ccc2oc(N3CCS(=O)(=O)CC3)nc2n1 [Compound 387]
9 | ≤ 100 nM | 50 to 100 nM | CCS(=O)(=O)N1CCN(c2nc3nc(-c4c(C)cc(C(F)(F)F)cc4O)ccc3o2)CC1 [Compound 388]
10 | ≤ 100 nM | < 50 nM | Cc1cc(C(F)(F)F)cc(O)c1-c1ccc2oc(N3CCN(S(C)(=O)=O)CC3)nc2n1 [Compound 390]
11 | ≤ 100 nM |  | Cc1cc(C(F)(F)F)cc(O)c1-c1ccn2nc(N[C@@H]3CCCN(CCO)C3)nc2n1 [Compound 455]
12 | 100 to 500 nM |  | CC(=O)N1CCOC[C@H]1CNc1nc2nc(-c3c(C)cc(C(F)(F)F)cc3O)cc(C)n2n1 [Compound 457]
13 | ≤ 100 nM |  | Cc1cc(-c2ccc(C(F)(F)F)cc2O)nc2nc(N3CCOCC3)nn12 [Compound 458]
14 | > 1000 nM |  | Cc1cc(C(F)(F)F)c(Cl)c(O)c1-c1ccn2nc(N3CCOCC3)nc2n1 [Compound 459]
15 | 100 to 500 nM |  | CC(=O)N1CCC[C@@H](Nc2nc3nc(-c4c(C)cc(C(F)(F)F)cc4O)ncc3[nH]2)C1 [Compound 461]

Further lines, the compound ahead of its results:

Row | SMILES | IC50 [1] | IC50 [2]
16 | Cc1cc(C(F)(F)F)cc(O)c1-c1ccc2[nH]c(CC(N)=O)nc2n1 [Compound 5] | ≤ 100 nM | 100 to 500 nM
17 | Cc1cc(C(F)(F)F)cc(O)c1-c1ccc2[nH]c(NCC(C)(C)O)nc2n1 [Compound 6] |  | 100 to 500 nM
18 | Cc1cc(C(F)(F)F)cc(O)c1-c1ccc2[nH]c(C3CCCNC3)nc2n1 (stereo not drawn) [Compound 9] | ≤ 100 nM | 50 to 100 nM
19 | CCN1CCCC(c2nc3nc(-c4c(C)cc(C(F)(F)F)cc4O)ccc3[nH]2)C1 (stereo not drawn) [Compound 10] | ≤ 100 nM | 100 to 500 nM
20 | CCN1CCC[C@@H](n2ccc3cc(-c4c(C)cc(C(F)(F)F)cc4O)nnc32)C1 [Compound 11-a] | ≤ 100 nM | < 50 nM
21 | CCN1CCCC(n2ccc3cc(-c4c(C)cc(C(F)(F)F)cc4O)nnc32)C1 (stereo not drawn) [Compound 11] | ≤ 100 nM | < 50 nM
22 | CCN1CCC[C@@H](N2CC(=O)Nc3cc(-c4c(C)cc(C(F)(F)F)cc4O)nnc32)C1 [Compound 12-a] | ≤ 100 nM | < 50 nM
23 | CCN1CCCC(N2CC(=O)Nc3cc(-c4c(C)cc(C(F)(F)F)cc4O)nnc32)C1 (stereo not drawn) [Compound 12] | ≤ 100 nM | 100 to 500 nM
24 | Cc1cc(C(F)(F)F)cc(O)c1-c1ccc2oc(N)nc2n1 [Compound 14] | ≤ 100 nM | 50 to 100 nM
25 | Cc1cc(C(F)(F)F)cc(O)c1-c1ccc2oc(NC[C@@H]3COCCN3C(=O)C(F)(F)F)nc2n1 [Compound 247] | ≤ 100 nM | 50 to 100 nM
26 | Cc1cc(C(F)(F)F)cc(O)c1-c1ccc2oc(NC[C@@H]3COCCN3C(=O)C(C)C)nc2n1 [Compound 248] | ≤ 100 nM | 100 to 500 nM
27 | Cc1cc(C(F)(F)F)cc(O)c1-c1ccc2oc(NC[C@@H]3COCCN3C(=O)C(F)F)nc2n1 [Compound 249] | ≤ 100 nM | 100 to 500 nM
